Measured values: patent publication US10780071B2, “Compositions, methods and/or devices for prevention and/or treatment of dry eye disorders” (Brien Holden Vision Institute Limited, priority 2012, dated 2020)
Like-named read-outs stand apart in the source and are kept apart here.

Experiments:
[1] = test system: lipase; assay: Lipase activity in culture supernatants, summary over the test strains; type: cell-based, S. aureus 020 & 134, and S. epidermidis 024 & 025
Description: The bacterial strains S. aureus 020 & 134, […] of glycerol monolaurate ointment prior to assay of bacterial growth and lipase activity. After incubation for 24 h, bacterial growth was determined by measuring the optical density of cultures using a spectrophotometer at a wavelength of 660 nm. Lipase activity by test bacterial strains under various treatments were assessed by examining the lipase activity in bacterial culture supernatants with a QuantiChrom™ Lipase Assay Kit.

[2] = test system: lipase; assay: Lipase activity in bacterial culture supernatants (QuantiChrom Lipase Assay Kit); type: cell-based; details: TSB, 37° C., 24 h
Description: (§1) The bacterial strains S. aureus 020 & 134, and S. epidermidis 024 & 025 were grown at 37° C. in TSB treated with 0, 6.25 or 12.5 μg/ml of glycerol monolaurate or lauric acid as well as in TSB extraction of glycerol monolaurate ointment prior to assay of bacterial growth and lipase activity. After incubation for 24 h, bacterial growth was determined by measuring the optical density of cultures using a spectrophotometer at a wavelength of 660 nm. Lipase activity by test bacterial strains under various treatments were assessed by examining the lipase activity in bacterial culture supernatants with a QuantiChrom™ Lipase Assay Kit.

[3] = test system: S. aureus 020 & 134, and S. epidermidis 024 & 025; assay: Bacterial growth, summary over the test strains; type: cell-based; details: concentrations of Tables 1-4; 24 h
Description: as §1

[4] = test system: S. epidermidis 024; assay: Bacterial growth, optical density of cultures at 660 nm; type: cell-based; details: read-out: Inhibition of Growth
Description: as §1

[5] = test system: S. epidermidis 025; assay: as above; type: cell-based; details: read-out: Inhibition of Growth
Description: as §1

[6] = test system: lipase; assay: Lipase activity in bacterial culture supernatants (QuantiChrom Lipase Assay Kit); type: cell-based; details: S. aureus 020, TSB, 37° C., 24 h
Description: (§2) The bacterial strains S. aureus 020 & 134, […] in TSB extraction of glycerol monolaurate ointment prior to assay of bacterial growth and lipase activity. After incubation for 24 h, bacterial growth was determined by measuring the optical density of cultures using a spectrophotometer at a wavelength of 660 nm. Lipase activity by test bacterial strains under various treatments were assessed by examining the lipase activity in bacterial culture supernatants with a QuantiChrom™ Lipase Assay Kit.

[7] = test system: S. aureus 134; assay: Bacterial growth, optical density of cultures at 660 nm; type: cell-based; details: Staphylococcus aureus, TSB, 37° C., 24 h
Description: as §1

[8] = test system: S. aureus 020; assay: as above; type: cell-based; details: Staphylococcus aureus, 020, 24 h, read-out: Inhibition of Growth
Description: as §1

[9] = test system: lipase; assay: Lipase activity in bacterial culture supernatants (QuantiChrom Lipase Assay Kit); type: cell-based; details: S. aureus 134, TSB, 37° C., 24 h
Description: as §2, with “134, and S.” for “134,”

[10] = glycerol monolaurate 12.5 μg/ml
[11] = glycerol monolaurate 17.5 μg/ml
[12] = Staphylococcus epidermidis, 024, 24 h
[13] = Staphylococcus epidermidis, 025, 24 h

CCCCCCCCCCCC(=O)O [Lauric acid]
inhibits lipase activity by approximately (range over Table 2) ([1]; S. epidermidis 024 and 025, 6.25 and 12.5 μg/ml (Table 2)): 46-72% | Inhibition of Lipase activity ([2]; S. epidermidis 024, lauric acid 6.25 μg/ml): 46% | Inhibition of Lipase activity ([2]; S. epidermidis 024, lauric acid 12.5 μg/ml): 70% | Inhibition of Lipase activity ([2]; S. epidermidis 025, lauric acid 6.25 μg/ml): 48% | Inhibition of Lipase activity ([2]; S. epidermidis 025, lauric acid 12.5 μg/ml): 72% | effect on growth of the bacterial strains at the concentrations used [3]: do not substantially inhibit growth | inhibition at 6.25 µg/mL ([4]; Staphylococcus epidermidis, S. epidermidis 024, lauric acid 6.25 μg/ml, TSB, 37° C., 24 h): 0% | inhibition at 12.5 µg/mL ([4]; Staphylococcus epidermidis, S. epidermidis 024, lauric acid 12.5 μg/ml, TSB, 37° C., 24 h): 0% | inhibition at 6.25 µg/mL ([5]; Staphylococcus epidermidis, S. epidermidis 025, lauric acid 6.25 μg/ml, TSB, 37° C., 24 h): 0% | inhibition at 12.5 µg/mL ([5]; Staphylococcus epidermidis, S. epidermidis 025, lauric acid 12.5 μg/ml, TSB, 37° C., 24 h): 0%

CCCCCCCCCCCC(=O)OCC(O)CO (stereo not shown) [Glycerol monolaurate]
inhibits lipase activity by approximately (range over Table 1) ([1]; all strains and concentrations of Table 1 (5-17.5 μg/ml)): 16-88% | Inhibition of Lipase activity ([6]; glycerol monolaurate 5 μg/ml): 16% | Inhibition of Lipase activity ([6]; glycerol monolaurate 7.5 μg/ml): 29% | Inhibition of Lipase activity ([6]; glycerol monolaurate 10 μg/ml): 50% | Inhibition of Lipase activity [6, 10]: 63% | Inhibition of Lipase activity ([6]; glycerol monolaurate 15 μg/ml): 73% | Inhibition of Lipase activity [6, 11]: 88% | Inhibition of Lipase activity ([2]; S. epidermidis 024, glycerol monolaurate 6.25 μg/ml): 46% | Inhibition of Lipase activity ([2]; S. epidermidis 024, glycerol monolaurate 12.5 μg/ml): 70% | Inhibition of Lipase activity ([2]; S. epidermidis 025, glycerol monolaurate 6.25 μg/ml): 48% | Inhibition of Lipase activity ([2]; S. epidermidis 025, glycerol monolaurate 12.5 μg/ml): 72% | effect on growth of the bacterial strains at the concentrations used [3]: do not substantially inhibit growth | inhibition at 10 µg/mL ([7]; glycerol monolaurate 10 μg/ml): 0% | inhibition at 12.5 µg/mL [7, 10]: 0% | inhibition at 15 µg/mL ([7]; glycerol monolaurate 15 μg/ml): 1% | inhibition at 17.5 µg/mL [7, 11]: 0% | inhibition at 6.25 µg/mL [4, 12]: 0% | inhibition at 12.5 µg/mL [4, 12]: 0% | inhibition at 5 µg/mL [8]: 1% | inhibition at 7.5 µg/mL [8]: 0% | inhibition at 10 µg/mL [8]: 4% | inhibition at 12.5 µg/mL [8]: 4% | inhibition at 15 µg/mL [8]: 2% | inhibition at 17.5 µg/mL [8]: 0% | inhibition at 6.25 µg/mL [5, 13]: 0% | inhibition at 12.5 µg/mL [5, 13]: 0% | Inhibition of Lipase activity ([9]; glycerol monolaurate 10 μg/ml): 25% | Inhibition of Lipase activity [9, 10]: 38% | Inhibition of Lipase activity ([9]; glycerol monolaurate 15 μg/ml): 49% | Inhibition of Lipase activity [9, 11]: 63%
